How the values were obtained:
Type in all cases: cell-based
AGTR1 [1] = target: T1, AGTR1 (Homo sapiens, UniProt P30556); test: DiscoveRx β-arrestin2 recruitment assay (enzyme complementation, Pathunter CHO-K1 AGTR1 β-arrestin cell line); conditions: DiscoveRx β-arrestin2 recruitment; for DiscoveRx β-arrestin2 Ymax (%): maximal response
T1 construct: host or cells: Pathunter CHO-K1 AGTR1 β-arrestin cell line (CHO-K1)
T1 sequence (P30556 1-359): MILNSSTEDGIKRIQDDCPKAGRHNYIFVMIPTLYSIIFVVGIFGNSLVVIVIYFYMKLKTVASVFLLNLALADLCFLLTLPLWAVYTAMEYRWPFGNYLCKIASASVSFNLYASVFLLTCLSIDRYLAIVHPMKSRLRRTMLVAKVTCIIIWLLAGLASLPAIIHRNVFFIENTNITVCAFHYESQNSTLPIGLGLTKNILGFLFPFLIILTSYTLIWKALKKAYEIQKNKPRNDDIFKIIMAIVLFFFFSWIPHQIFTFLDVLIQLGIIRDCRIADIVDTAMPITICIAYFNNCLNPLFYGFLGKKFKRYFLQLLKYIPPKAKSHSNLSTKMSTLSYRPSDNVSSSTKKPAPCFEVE
How it was run: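 Chemiluminescent enzyme-complementation read-out of β-arrestin2 recruitment to AGTR1 in engineered CHO-K1 cells after 90 min compound exposure at 37° C. Values are 4-parameter logistic EC50s in agonist mode, IC50s in antagonist mode, with efficacy relative to the maximal All response.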

AGTR1 [2] = target: T1, AGTR1; test: DiscoveRx IP1 accumulation assay (HTRF), agonist mode, Pathunter CHO-K1 AGTR1 β-arrestin cell line; conditions: for EC50: read-out: IP-1 EC50
How it was run: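 Agonist mode in CHO-K1 AGTR1 β-arrestin cells plated 14-16 h before; compounds at varying concentrations for 90 min at 37° C, IP1 accumulation read by HTRF (D2-conjugate and anti-IP1 cryptate, 20 min room temperature). EC50 from 4-parameter logistic fit; activity given as percentage of maximal AII effect.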

hAT1R = target: T2, hAT1R (Homo sapiens, UniProt P30556); test: BRET β-arrestin2 biosensor assay, higher receptor expression (hAT1R 5 ng/well), HEK293 cells; conditions: for EC50: High AT1R Expression
T2 sequence (P30556 1-359): T1 sequence (P30556 1-359)

| Structure (SMILES) | EC50 (AGTR1 [1]) [nM] | DiscoveRx β-arrestin2 Ymax (%) (AGTR1 [1]) | IP-1 Ymax (%) (AGTR1 [2]) | EC50 (AGTR1 [2]) [nM] | BRET β-Arrestin2 High AT1R Expression Ymax (%) (hAT1R) | EC50 (hAT1R) [nM] |
| --- | --- | --- | --- | --- | --- | --- |
| CCc1nc2c(C)cc(C)nc2n1Cc1ccc(-c2cc(N3CCCC(C)(C)C3)ccc2-c2nn[nH]n2)cc1 [Example 98, 3-((5′-(3,3-dimethylpiperidin-1-yl)-2′-(2H-tetrazol-5-yl)-[1,1′-biphenyl]-4-yl)methyl)-2-ethyl-5,7-dimethyl-3H-imidazo[4,5-b]pyridine] | 18.8 | 72.9 | 6.6 | 26.7 | 86.6 | 20.3 |
| CCCCC1=NC2(CCCC2)C(=O)N1Cc1ccc(-c2cc(Nc3ccccc3)ccc2-c2nn[nH]n2)cc1 [Example 99, 2-butyl-3-((5′-(phenylamino)-2′-(2H-tetrazol-5-yl)-[1,1′-biphenyl]-4-yl)methyl)-1,3-diazaspiro[4.4]non-1-en-4-one] | 32.4 | 6.3 |  | > 100000 | 9.6 | 144 |
| CCCCC1=NC2(CCCC2)C(=O)N1Cc1ccc(-c2cc(N3CCC(C)CC3)ccc2-c2nn[nH]n2)cc1 [Example 100] | 28.8 | 12.7 | 6.1 | 49.9 | 19.4 | 155 |
| CCCCC1=NC2(CCCC2)C(=O)N1Cc1ccc(-c2cc(N3CCCC(C)(C)C3)ccc2-c2nn[nH]n2)cc1 [Example 102] | 44.4 | 41.0 | 3.8 | 723 | 71.6 | 99.6 |
| CCCCC1=NC2(CCCC2)C(=O)N1Cc1ccc(-c2cc(N3CCC[C@H](C)C3)ccc2-c2nn[nH]n2)cc1 [Example 104] | 116 | 9.1 |  | > 100000 | 23.4 | 346 |
| CCCCC1=NC2(CCCC2)C(=O)N1Cc1ccc(-c2cc(-n3ccc4ccccc43)ccc2-c2nn[nH]n2)cc1 [Example 105] | 16 | 31.0 |  | > 100000 | 58.0 | 28.9 |
| CCCCC1=NC2(CCCC2)C(=O)N1Cc1ccc(-c2cc(N3CCC[C@@H](C)C3)ccc2-c2nn[nH]n2)cc1 [Example 106] | 17.6 | 6.3 |  | > 100000 | 12.4 | 138 |
| CCCCC1=NC2(CCCC2)C(=O)N1Cc1ccc(-c2cc(N3CC(C)(C)c4ccccc43)ccc2-c2nn[nH]n2)cc1 [Example 107] | 26.7 | 24.6 |  | > 100000 | 54.3 | 226 |
| CCCCC1=NC2(CCCC2)C(=O)N1Cc1ccc(-c2cc(-n3ccc4ccc(F)cc43)ccc2-c2nn[nH]n2)cc1 [Example 109] | 19.6 | 17.4 |  | > 100000 | 59.9 | 73.1 |
| CCCCC1=NC2(CCCC2)C(=O)N1Cc1ccc(-c2cc(N3CCCC(F)(F)C3)ccc2-c2noc(=O)[nH]2)cc1 [Example 121, 3-(4′-((2-butyl-4-oxo-1,3-diazaspiro[4.4]non-1-en-3-yl)methyl)-5-(3,3-difluoropiperidin-1-yl)-[1,1′-biphenyl]-2-yl)-1,2,4-oxadiazol-5(4H)-one] | 302 | 47.4 | 7.2 | 368 | 98.0 | 431 |
| CCCCC1=NC2(CCCC2)C(=O)N1Cc1ccc(-c2cc(-c3ccsn3)ccc2-c2nn[nH]n2)cc1 [Example 123, 2-butyl-3-((5′-(isothiazol-3-yl)-2′-(2H-tetrazol-5-yl)-[1,1′-biphenyl]-4-yl)methyl)-1,3-diazaspiro[4.4]non-1-en-4-one] | 9.7 | 4.9 |  | > 100000 | 20.6 | 65.3 |
| CCCCC1=NC2(CCCC2)C(=O)N1Cc1ccc(-c2cc(-c3ccc(C(=O)NC)cc3)ccc2-c2nn[nH]n2)cc1 [Example 124] | 64.9 | 28.1 |  | > 100000 | 32.6 | 138 |
| CCCCC1=NC2(CCCC2)C(=O)N1Cc1ccc(-c2cc(-c3cccnc3)ccc2-c2nn[nH]n2)cc1 [Example 125] | 45.3 | 16.6 |  | > 100000 | 15.1 | 300 |
| CCCCC1=NC2(CCCC2)C(=O)N1Cc1ccc(-c2cc(-c3ccc(CO)cc3)ccc2-c2nn[nH]n2)cc1 [Example 126] | 5.3 | 17.3 |  | > 100000 | 65.1 | 47.1 |
| CCCCC1=NC2(CCCC2)C(=O)N1Cc1ccc(-c2cc(-c3ccccc3CO)ccc2-c2nn[nH]n2)cc1 [Example 128] | 25.7 | 14.5 |  | > 100000 | 11.0 | 133 |
| CCCCC1=NC2(CCCC2)C(=O)N1Cc1ccc(-c2cc(-c3ccsc3)ccc2-c2nn[nH]n2)cc1 [Example 130] | 21.9 | 31.2 | 5.9 | 108 | 80.0 | 26.1 |
| CCCCC1=NC2(CCCC2)C(=O)N1Cc1ccc(-c2cc(-c3cccs3)ccc2-c2nn[nH]n2)cc1 [Example 131] | 13.7 | 19.1 |  | > 100000 | 42.5 | 49 |
| CCCCC1=NC2(CCCC2)C(=O)N1Cc1ccc(-c2cc(-c3ccc(OC(F)(F)F)cc3)ccc2-c2nn[nH]n2)cc1 [Example 134] | 73.5 | 40.3 | 4.0 | 102 | 77.0 | 158 |
| CCCCC1=NC2(CCCC2)C(=O)N1Cc1ccc(-c2cc(-c3cccc(F)c3F)ccc2-c2nn[nH]n2)cc1 [Example 135] | 13.7 | 38.6 |  | > 100000 | 94.8 | 28.7 |
| CCCCC1=NC2(CCCC2)C(=O)N1Cc1ccc(-c2cc(-c3ccc(OC(F)F)cn3)ccc2-c2nn[nH]n2)cc1 [Example 136] | 4.9 | 43.2 | 18.1 | 14.4 | 94.2 | 9.9 |
| CCCCC1=NC2(CCCC2)C(=O)N1Cc1ccc(-c2cc(-c3cscn3)ccc2-c2nn[nH]n2)cc1 [Example 137] | > 100000 |  |  | > 100000 | 12.2 | 35.3 |
| CCCCC1=NC2(CCCC2)C(=O)N1Cc1ccc(-c2cc(-c3cccc(C(F)(F)F)n3)ccc2-c2nn[nH]n2)cc1 [Example 142] | 27.5 | 22.7 | 4.8 | 140 | 82.9 | 59.2 |
| CCCCC1=NC2(CCCC2)C(=O)N1Cc1ccc(-c2cc(-c3ccccc3)ccc2-c2noc(=O)[nH]2)cc1 [Example 143, 3-(4″-((2-butyl-4-oxo-1,3-diazaspiro[4.4]non-1-en-3-yl)methyl)-[1,1′:3′,1″-terphenyl]-4′-yl)-1,2,4-oxadiazol-5(4H)-one] | 8.4 | 47.4 | 5.2 | 18.3 | 94.6 | 8.2 |
| CCCCC1=NC2(CCCC2)C(=O)N1Cc1ccc(-c2cc(-c3cccc(F)c3F)ccc2-c2noc(=O)[nH]2)cc1 [Example 144, 3-(4″-((2-butyl-4-oxo-1,3-diazaspiro[4.4]non-1-en-3-yl)methyl)-2,3-difluoro-[1,1′:3′,1″-terphenyl]-4′-yl)-1,2,4-oxadiazol-5(4H)-one] | 12.3 | 33.3 |  | > 100000 | 104.0 | 26.8 |
| CCCCC1=NC2(CCCC2)C(=O)N1Cc1ccc(-c2cc(-c3ccccc3)ccc2C(=O)O)cc1 [Example 145, 4″-((2-butyl-4-oxo-1,3-diazaspiro[4.4]non-1-en-3-yl)methyl)-[1,1′:3′,1″-terphenyl]-4′-carboxylic acid] | 27.3 | 36.3 | 3.1 | 57.1 | 81.5 | 64.4 |
